Test results reported in ChEMBL document CHEMBL1201862, “PubChem BioAssay data set” (2004).
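Compound exposure: 48 hours, 5 concentrations, 96-well plates. Here, GI50 denotes the concentration required for 50% inhibition of growth.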 Active and inactive are the calls of the source. Rule as the data show it: active = GI50 up to about 1.1 µM and inactive = higher.

Tests used:
Test in all cases: NCI anticancer screen, dose series, 48 h
[1] = tested on: A498
[2] = tested on: COLO 205
[3] = tested on: HCC 2998
[4] = tested on: HCT-116
[5] = tested on: HOP-62
[6] = tested on: Hs-578T
[7] = tested on: IGROV-1
[8] = tested on: MDA-MB-435
[9] = tested on: NCI-H226
[10] = tested on: OVCAR-4
[11] = tested on: OVCAR-8
[12] = tested on: PC-3
[13] = tested on: RPMI-8226
[14] = tested on: SF-295
[15] = tested on: SK-MEL-28
[16] = tested on: T47D
[17] = tested on: MDA-N
[18] = tested on: OVCAR-3
[19] = tested on: OVCAR-5
[20] = tested on: SN12C

Measured: GI50

CCOC(=O)C(C)c1nc2cc3cccnc3c(Cl)c2[nH]c1=O (centres undefined)
inactive: [1] > 100 µM | [2] > 100 µM | [3] 85.3 µM | [4] > 100 µM | [5] > 100 µM | [6] 54.1 µM | [7] 52.6 µM | [8] > 100 µM | [9] > 100 µM | [10] > 100 µM | [11] > 100 µM | [12] > 100 µM | [13] 25.9 µM | [14] > 100 µM | [15] > 100 µM | [16] 23.4 µM

O=C(N/N=C1/C(=O)c2c3ccccc3cc3cccc1c23)c1cccc(Cl)c1
inactive: [1] > 100 µM | [2] > 100 µM | [3] > 100 µM | [4] > 100 µM | [5] 28.9 µM | [6] 16 µM | [7] 2.78 µM | [8] > 100 µM | [17] > 100 µM | [9] > 100 µM | [18] > 100 µM | [10] > 100 µM | [19] > 100 µM | [11] > 100 µM | [12] > 100 µM | [13] > 100 µM | [15] > 100 µM | [20] > 100 µM

CCN1CN(c2ccccc2)C2(CCN(CC3COc4ccccc4O3)CC2)C1=O (centres undefined)
inactive: [1] 22.6 µM | [2] 15.7 µM | [4] 17.6 µM | [5] 35.6 µM | [6] 20.7 µM | [7] 53.7 µM | [8] 23.3 µM | [17] 2.28 µM | [9] 24 µM | [18] 31.2 µM | [19] 24.3 µM | [11] 34.7 µM | [12] 25.3 µM | [13] 17.4 µM | [14] 39.9 µM | [15] 32.5 µM | [20] 41.5 µM | [16] 24.3 µM

COc1cccc(/C=C/c2cnc3ccccc3n2)c1OC
inactive: [1] 40.4 µM | [2] 48.3 µM | [4] 30.1 µM | [5] 24.7 µM | [6] 19.1 µM | [7] 39.1 µM | [8] 32 µM | [17] 61.1 µM | [9] 37.2 µM | [18] 37.2 µM | [10] 25.6 µM | [19] 72.6 µM | [11] 29.7 µM | [12] 25.1 µM | [13] 41.8 µM | [14] 46.1 µM | [15] 44.2 µM | [20] 39.5 µM | [16] 23.2 µM

O=C1c2ccccc2CC12CCC1(CC2)OCCO1
inactive: [2] > 100 µM | [3] > 100 µM | [4] > 100 µM | [5] > 100 µM | [6] > 100 µM | [7] > 100 µM | [17] > 100 µM | [9] > 100 µM | [10] > 100 µM | [19] > 100 µM | [11] > 100 µM | [12] > 100 µM | [13] > 100 µM | [14] > 100 µM | [15] > 100 µM | [20] > 100 µM | [16] > 100 µM

Clc1nc(Cl)c(-c2ccccc2)c(Cl)n1
inactive: [1] 16.2 µM | [2] 1.84 µM | [4] 1.84 µM | [5] 16.9 µM | [6] 3.83 µM | [7] 4.92 µM | [8] 3.24 µM | [17] 2.49 µM | [9] 2.3 µM | [18] 3.57 µM | [10] 2.51 µM | [19] 4.61 µM | [11] 2.75 µM | [13] 2.69 µM | [14] 12.7 µM | [15] 5.96 µM | [20] 3.14 µM | [16] 2.59 µM

CCc1c2c([nH]c(=S)c1C#N)CCC2
inactive: [1] > 100 µM | [2] > 100 µM | [3] > 100 µM | [4] > 100 µM | [5] > 100 µM | [6] > 100 µM | [7] > 100 µM | [8] > 100 µM | [17] > 100 µM | [9] > 100 µM | [18] > 100 µM | [10] > 100 µM | [19] > 100 µM | [11] > 100 µM | [12] > 100 µM | [13] > 100 µM | [14] > 100 µM | [15] > 100 µM

CN(C)Cc1c(O)ccc2c1c1c(n2C)C(=O)c2ccccc2C1=O
inactive: [1] 4.43 µM | [2] 6.76 µM | [3] 3.45 µM | [4] 9.95 µM | [5] 15.1 µM | [6] 18.7 µM | [7] 3.73 µM | [8] 4.35 µM | [9] 11 µM | [18] 4.75 µM | [10] 4.28 µM | [19] 4.16 µM | [11] 5.46 µM | [12] 3.9 µM | [13] 2.67 µM | [14] 6.17 µM | [15] 4.69 µM | [20] 3.62 µM | [16] 11.7 µM

O=C(CSCC(=O)N/N=C/c1ccc(F)cc1)N/N=C/c1ccc(F)cc1
inactive: [1] 38.2 µM | [2] > 100 µM | [3] 66.8 µM | [4] > 100 µM | [5] > 100 µM | [6] > 100 µM | [7] > 100 µM | [9] > 100 µM | [10] > 100 µM | [19] > 100 µM | [11] > 100 µM | [12] 66.2 µM | [13] 60.8 µM | [15] > 100 µM | [20] > 100 µM | [16] > 100 µM

CC(Nc1ncc2c(n1)-c1ccccc1OC2)C(=O)O (centres undefined)
inactive: [2] 35.6 µM | [4] > 100 µM | [5] 51.6 µM | [6] 82.4 µM | [7] 25.2 µM | [8] > 100 µM | [17] > 100 µM | [9] 61.7 µM | [18] 27.9 µM | [10] > 100 µM | [19] > 100 µM | [11] > 100 µM | [12] > 100 µM | [13] 34.2 µM | [14] > 100 µM | [15] > 100 µM | [20] 59.7 µM

N#CC(C#N)=C/C=C/c1ccccc1[N+](=O)[O-]
inactive: [1] > 10 µM | [2] 3.93 µM | [3] > 10 µM | [4] 1.87 µM | [5] > 10 µM | [6] 3.48 µM | [7] > 10 µM | [17] 2.44 µM | [9] > 10 µM | [18] 4.98 µM | [10] 6 µM | [11] 1.96 µM | [12] 5.06 µM | [13] 3.19 µM | [14] > 10 µM | [15] 2.11 µM | [20] > 10 µM | [16] > 10 µM

ClCCc1ccccc1CC1=NCCc2ccccc21
inactive: [1] 37.6 µM | [2] 24 µM | [3] 25.1 µM | [4] 32.5 µM | [5] 34.8 µM | [6] 28.5 µM | [7] 32 µM | [8] 28.8 µM | [9] 22.5 µM | [18] 28.8 µM | [10] 43.5 µM | [19] 40.6 µM | [11] 28.4 µM | [12] 30.5 µM | [13] 16.3 µM | [14] 39.3 µM | [15] 47.6 µM | [20] 40.7 µM | [16] 21.9 µM

N#CCC1(c2ccc(Cl)cc2)NC(=O)c2ccccc21 (centres undefined)
inactive: [1] > 100 µM | [2] > 100 µM | [4] > 100 µM | [5] > 100 µM | [6] > 100 µM | [7] > 100 µM | [8] > 100 µM | [17] > 100 µM | [9] > 100 µM | [18] > 100 µM | [10] > 100 µM | [19] > 100 µM | [11] > 100 µM | [12] > 100 µM | [13] > 100 µM | [14] > 100 µM | [15] > 100 µM | [20] > 100 µM | [16] > 100 µM

CCN(CC)CCOc1ccccc1/C=C/c1noc2ccccc12
inactive: [1] 17.2 µM | [2] 6.21 µM | [3] 5.79 µM | [4] 6.22 µM | [5] 14.4 µM | [6] 15.7 µM | [7] 9.91 µM | [17] 11.8 µM | [9] 16.3 µM | [18] 14.7 µM | [10] 24.5 µM | [19] 12.5 µM | [11] 12.2 µM | [12] 4.89 µM | [14] 16.2 µM | [15] 7.73 µM | [20] 11.5 µM | [16] 12.6 µM

O=[N+]([O-])c1ccc(C2CC(c3ccccc3Cl)=Nc3ccccc3[S+]2[O-])cc1 (centres undefined)
inactive: [1] 2.34 µM | [2] 7.69 µM | [3] 2.92 µM | [4] 1.88 µM | [5] 7.19 µM | [6] 2.75 µM | [7] 2.77 µM | [17] 9.51 µM | [9] 5.86 µM | [18] 3.48 µM | [10] 2.31 µM | [19] 3.71 µM | [11] 2.87 µM | [12] 4.67 µM | [13] 1.77 µM | [14] 5.55 µM | [15] 5.18 µM | [20] 2.26 µM | [16] 12.8 µM
